Laboratory results taken from ChEMBL document CHEMBL5214895, “3-Hydroxy-propanamidines, a New Class of Orally Active Antimalarials Targeting Plasmodium falciparum” (J Med Chem, 2021).

Experiments:
[1] = Cytotoxicity against human HepG2 cells assessed as inhibition of cell growth incubated for 24 hrs by neutral red dye based analysis; assay type: toxicity
Plasmodium falciparum [2] = test: Antiplasmodial activity against chloroquine-sensitive asexual blood stage Plasmodium falciparum 3D7 assessed as inhibition of parasite growth incubated for […] by HRP2-ELISA; assay type: functional, organism-based
[3] = Selectivity index, ratio of IC50 for cytotoxicity against human HepG2 cells to IC50 for antiplasmodial activity against chloroquine-sensitive asexual blood stage Plasmodium falciparum 3D7; assay type: toxicity, cell-based; conditions: read-out: Ratio IC50
Plasmodium falciparum [4] = test: Antiplasmodial activity against multidrug resistant asexual blood stage Plasmodium falciparum Dd2 assessed as inhibition of parasite growth incubated for […] by HRP2-ELISA; assay type: functional, organism-based
Plasmodium berghei [5] = test: Antimalarial activity against Plasmodium berghei infected in mouse assessed as mean survival days at 30 mg/kg, po administered for 4 times starting from 4 to 72 hrs and monitered for 30 days (reference value: 4 days); assay type: functional; conditions: time 30 day
Plasmodium berghei [6] = test: Antimalarial activity against Plasmodium berghei infected in mouse assessed as reduction in parasitemia in blood at 30 mg/kg, po administered for 4 times starting from 4 to 72 hrs and measured after 96 hrs post infection (reference value: 0%); assay type: functional; parameters: scale not given: the % may be the effect or the level left

COc1ccc(CC/N=C(\N)CC(O)c2cc3ccccc3c3ccccc23)cc1 (configuration not stated)
IC50 at 24 h [1]: 9000 nM
IC50 (Plasmodium falciparum [2]): 70 nM
selectivity ratio [3]: 129
IC50 (Plasmodium falciparum [4]): 700 nM

N=C(CC(O)c1cc2ccccc2c2ccccc12)NCCc1ccccc1 (configuration not stated)
IC50 at 24 h [1]: 5700 nM
IC50 (Plasmodium falciparum [2]): 720 nM
selectivity ratio [3]: 8
IC50 (Plasmodium falciparum [4]): 10000 nM

N/C(CC(O)c1ccnc2ccccc12)=N\c1ccc(F)cc1 (configuration not stated)
IC50 at 24 h [1]: > 200000 nM
IC50 (Plasmodium falciparum [2]): 3400 nM
selectivity ratio [3]: > 200
IC50 (Plasmodium falciparum [4]): 5600 nM

N=C(CC(O)c1cc2ccccc2c2ccccc12)NCCc1ccc(F)cc1 (configuration not stated)
IC50 at 24 h [1]: 5000 nM
IC50 (Plasmodium falciparum [2]): 330 nM
selectivity ratio [3]: 16
IC50 (Plasmodium falciparum [4]): 1100 nM

N/C(CC(O)c1cc2c(Cl)cc(Cl)cc2c2cc(C(F)(F)F)ccc12)=N\OCc1ccc(F)cc1 (configuration not stated)
IC50 at 24 h [1]: 34100 nM
selectivity ratio [3]: 122

N=C(CC(O)c1cc2ccccc2c2ccccc12)NCc1ccccc1 (configuration not stated)
IC50 at 24 h [1]: 13000 nM
IC50 (Plasmodium falciparum [2]): 480 nM
selectivity ratio [3]: 27
IC50 (Plasmodium falciparum [4]): 1500 nM

N/C(CC(O)c1cc2ccccc2c2ccccc12)=N\CCc1ccccn1 (configuration not stated)
IC50 at 24 h [1]: 50500 nM
IC50 (Plasmodium falciparum [2]): 15000 nM
selectivity ratio [3]: 3
IC50 (Plasmodium falciparum [4]): 22800 nM

CCN(CC)Cc1cc(/N=C(\N)CC(O)c2cc3ccccc3c3ccccc23)ccc1O (configuration not stated)
IC50 at 24 h [1]: 15200 nM
IC50 (Plasmodium falciparum [2]): 50 nM
selectivity ratio [3]: 304
IC50 (Plasmodium falciparum [4]): 640 nM

CC(C)(C)c1cc(C(O)C/C(N)=N/c2ccc(F)cc2)cc(C(C)(C)C)c1 (configuration not stated)
IC50 (Plasmodium falciparum [2]): 330 nM
IC50 (Plasmodium falciparum [4]): 350 nM

CC(C)(C)c1ccc(/N=C(\N)CC(O)c2ccc(C(C)(C)C)cc2)cc1 (configuration not stated)
IC50 at 24 h [1]: 11800 nM
IC50 (Plasmodium falciparum [2]): 50 nM
selectivity ratio [3]: 236
IC50 (Plasmodium falciparum [4]): 50 nM

N/C(CC(O)c1cc2c(F)cc(F)cc2c2cc(C(F)(F)F)ccc12)=N\CCc1ccc(F)cc1 (configuration not stated)
IC50 (Plasmodium falciparum [2]): 240 nM
IC50 (Plasmodium falciparum [4]): 120 nM

COc1ccc2nccc(C(O)C/C(N)=N/c3ccc(F)cc3)c2c1 (configuration not stated)
IC50 at 24 h [1]: 180000 nM
IC50 (Plasmodium falciparum [2]): 2100 nM
selectivity ratio [3]: 86
IC50 (Plasmodium falciparum [4]): 5100 nM

N/C(CC(O)c1cc2ccccc2c2ccccc12)=N\c1ccc(F)cc1 (configuration not stated)
IC50 at 24 h [1]: 9300 nM
IC50 (Plasmodium falciparum [2]): 27 nM
selectivity ratio [3]: 344
IC50 (Plasmodium falciparum [4]): 40 nM

N=C(CC(O)c1cc2ccccc2c2ccccc12)NCc1ccc(F)cc1 (configuration not stated)
IC50 at 24 h [1]: 9200 nM
IC50 (Plasmodium falciparum [2]): 980 nM
selectivity ratio [3]: 9
IC50 (Plasmodium falciparum [4]): 20000 nM

C[C@H]1[C@H](OC(=O)CCC(=O)O)O[C@@H]2O[C@@]3(C)CC[C@H]4[C@H](C)CC[C@@H]1[C@@]24OO3 [ARTESUNATE]
MSD (Plasmodium berghei [5]): 9 days
Activity (Plasmodium berghei [6]): 99%

N/C(CC(O)c1cc2c(Cl)cc(Cl)cc2c2cc(C(F)(F)F)ccc12)=N\N1CCCCC1 (configuration not stated)
IC50 at 24 h [1]: 8300 nM
selectivity ratio [3]: 1190

N=C(CC(O)c1cc2c(Cl)cc(Cl)cc2c2cc(C(F)(F)F)ccc12)NCCc1ccc(F)cc1 (configuration not stated)
IC50 at 24 h [1]: 7300 nM
IC50 (Plasmodium falciparum [2]): 350 nM
selectivity ratio [3]: 21
IC50 (Plasmodium falciparum [4]): 230 nM

CCCCN(CCCC)CC(O)c1cc(Cl)cc2c1-c1ccc(Cl)cc1/C2=C/c1ccc(Cl)cc1 (configuration not stated) [LUMEFANTRINE]
IC50 at 24 h [1]: > 20000 nM
IC50 (Plasmodium falciparum [2]): 6 nM
selectivity ratio [3]: 20
MSD (Plasmodium berghei [5]): >30 days
Activity (Plasmodium berghei [6]): 99.8%
IC50 (Plasmodium falciparum [4]): 2 nM

COc1ccc(/N=C(\N)CC(O)c2ccc(C(C)(C)C)cc2)cc1 (configuration not stated)
IC50 at 24 h [1]: 56200 nM
IC50 (Plasmodium falciparum [2]): 3400 nM
selectivity ratio [3]: 17
IC50 (Plasmodium falciparum [4]): 2400 nM

CC(C)(C)c1ccc(C(O)C/C(N)=N/c2ccc(F)cc2)cc1 (configuration not stated)
IC50 at 24 h [1]: 57500 nM
IC50 (Plasmodium falciparum [2]): 1500 nM
selectivity ratio [3]: 38
IC50 (Plasmodium falciparum [4]): 940 nM
